CC(=O)c1cccc(O)c1
solubility (mole fraction)
Conditions | in benzene | in ethanol | in ethyl acetate | in isobutanol | in isopropanol | in methanol | in methyl acetate | in n-butanol | in n-propanol | in water
289.15 K | 0.00506 | 0.166 | 0.158 | 0.119 | 0.176 | 0.156 | 0.16 | 0.154 | 0.152 | 0.00073
292.15 K | 0.00532 | 0.175 | 0.168 | 0.126 | 0.184 | 0.169 | 0.171 | 0.163 | 0.161 | 0.00078
295.15 K | 0.00707 | 0.19 | 0.18 | 0.146 | 0.201 | 0.185 | 0.182 | 0.172 | 0.18 | 0.001
298.15 K | 0.00848 | 0.209 | 0.191 | 0.166 | 0.22 | 0.203 | 0.197 | 0.189 | 0.199 | 0.00106
301.15 K | 0.0122 | 0.225 | 0.199 | 0.184 | 0.236 | 0.22 | 0.209 | 0.203 | 0.211 | 0.00113
304.15 K | 0.015 | 0.245 | 0.214 | 0.205 | 0.256 | 0.239 | 0.229 | 0.221 | 0.23 | 0.00154
307.15 K | 0.0198 | 0.263 | 0.235 | 0.235 | 0.275 | 0.255 | 0.253 | 0.242 | 0.252 | 0.00172
310.15 K | 0.0238 | 0.287 | 0.254 | 0.265 | 0.3 | 0.279 | 0.274 | 0.261 | 0.274 | 0.00199
313.15 K | 0.0281 | 0.308 | 0.277 | 0.293 | 0.324 | 0.302 | 0.298 | 0.284 | 0.299 | 0.00245
316.15 K | 0.0308 | 0.335 | 0.304 | 0.32 | 0.349 | 0.328 | 0.324 | 0.309 | 0.329 | 0.00291
319.15 K | 0.037 | 0.361 | 0.333 | 0.348 | 0.372 | 0.349 | 0.346 | 0.335 | 0.36 | 0.00362
322.15 K | 0.0453 | 0.391 | 0.364 | 0.38 | 0.401 | 0.383 | 0.376 | 0.368 | 0.395 | 0.00456
325.15 K | 0.0614 | 0.42 | 0.384 | 0.421 | 0.431 | 0.409 | 0.407 | 0.402 | 0.425 | 0.00562

— BigSolDB 2.1
